According to US20040266766A1, “Selective urokinase inhibitors” (Wilex AG, priority 2001, published 2004):
Structures can show the parent of a compound that is named as a salt. Where two headings read alike, the source gives them in different places. Blank lines part the entries; values can stand above or below the molecule they belong to.

Experiments:
mouse mammary carcinoma = conditions: cited from earlier work
rat prostate carcinoma = conditions: syngenic model for rat prostate carcinoma; cited from earlier work
Plasmin [1] = target: T1, Plasmin (Homo sapiens, UniProt P00747); assay: In vitro inhibition of plasmin (Ki according to Dixon); type: biochemical
T1 sequence (P00747 581-810 limits assumed, species assumed): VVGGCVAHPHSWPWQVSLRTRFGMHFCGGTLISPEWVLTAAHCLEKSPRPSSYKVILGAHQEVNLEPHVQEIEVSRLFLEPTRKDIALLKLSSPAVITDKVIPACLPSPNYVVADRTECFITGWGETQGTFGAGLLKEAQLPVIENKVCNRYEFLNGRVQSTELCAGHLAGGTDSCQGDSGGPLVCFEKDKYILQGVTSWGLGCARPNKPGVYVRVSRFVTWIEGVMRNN
T1 sequence (P00747 97-580 partner limits assumed, species assumed): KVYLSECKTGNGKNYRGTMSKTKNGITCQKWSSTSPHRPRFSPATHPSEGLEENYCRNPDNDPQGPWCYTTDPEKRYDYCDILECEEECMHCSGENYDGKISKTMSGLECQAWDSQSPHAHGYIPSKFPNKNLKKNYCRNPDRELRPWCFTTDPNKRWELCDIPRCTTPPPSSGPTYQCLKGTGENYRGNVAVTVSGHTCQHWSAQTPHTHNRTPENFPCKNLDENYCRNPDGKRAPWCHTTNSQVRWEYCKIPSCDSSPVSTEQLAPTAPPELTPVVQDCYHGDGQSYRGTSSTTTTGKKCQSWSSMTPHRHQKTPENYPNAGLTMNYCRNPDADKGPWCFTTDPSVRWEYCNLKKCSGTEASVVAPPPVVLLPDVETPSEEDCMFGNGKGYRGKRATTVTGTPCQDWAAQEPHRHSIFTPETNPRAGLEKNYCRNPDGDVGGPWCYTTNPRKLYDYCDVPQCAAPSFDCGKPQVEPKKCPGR
Protocol: (§1) In order to determine the inhibitory activity, 200 μl Tris buffer (0.05 mol/l containing the inhibitor, 0.154 mol/l NaCl, pH 8.0), 25 μl substrate (Pefachrome uPA, Pefachrome PL or Pefabloc TH in H2O; Pentapharm Ltd, Basle, Switzerland) and 50 μl urokinase (Calbiochem-Novabiochem GmbH, Bad Soden, Germany) or another appropriate protease e.g. plasmin, thrombin or FXa are incubated for 10 minutes at 30° C. After ca. 30 minutes and 30 cycles the absorption is determined at 405 nm by means of a microplate reader (Mediators PHL, Aureon Biosystems, Vienna, Austria). The Ki values were determined according to Dixon by linear regression using a computer program.

urokinase = target: T2, urokinase (Homo sapiens, UniProt P00749); assay: In vitro inhibition of urokinase by WX-508 (Example 15); type: biochemical
T2 construct: purchased Calbiochem-Novabiochem GmbH, Bad Soden, Germany
Protocol: (§2) In order to determine the uPA inhibitory activity, 200 μl Tris-buffer (0.05 mol/l containing the inhibitor, 0.154 mol/l NaCl, pH 8.0), 25 μl substrate (Pefachrome uPA or BZ-O-Ala-Gly-Arg-pNA in H2O; Pentapharm Ltd., Basle, Switzerland) and 50 μl urokinase (Calbiochem-Novabiochem GmbH, Bad Soden, Germany) or another appropriate protease are incubated at 30° C. After ca. 30 minutes and 30 cycles the absorption is determined at 405 nm by means of a microplate reader (Mediators PHL, Aureon Biosystems, Vienna, Austria). The Ki values were determined according to Dixon by linear regression using a computer program.

Thrombin [2] = target: T3, Thrombin (Homo sapiens, UniProt P00734); assay: In vitro inhibition of thrombin (Ki according to Dixon); type: biochemical
Protocol: as §1

Thrombin [3] = target: T3, Thrombin; assay: In vitro inhibition of thrombin by WX-508 (Example 15); type: biochemical
Protocol: as §2

[4] = Oral bioavailability and plasma kinetics in mice (serum concentration); type: in vivo, Balb/c mice; conditions: mouse; for concentration at 20 min / concentration at 40 min / concentration at 60 min: female, Balb/c, serum, po; for concentration at 20 min: sample at 20 minutes; for concentration at 40 min: sample at 40 minutes; for concentration at 60 min: sample at 60 minutes; for c in the serum 1st analysis / c in the serum 2nd analysis: 10 mg/kg i.v.
PK = PK (Homo sapiens, UniProt P03952); assay: In vitro inhibition of PK (Ki); type: biochemical; conditions: summary table
PK, sequence (P03952 20-638): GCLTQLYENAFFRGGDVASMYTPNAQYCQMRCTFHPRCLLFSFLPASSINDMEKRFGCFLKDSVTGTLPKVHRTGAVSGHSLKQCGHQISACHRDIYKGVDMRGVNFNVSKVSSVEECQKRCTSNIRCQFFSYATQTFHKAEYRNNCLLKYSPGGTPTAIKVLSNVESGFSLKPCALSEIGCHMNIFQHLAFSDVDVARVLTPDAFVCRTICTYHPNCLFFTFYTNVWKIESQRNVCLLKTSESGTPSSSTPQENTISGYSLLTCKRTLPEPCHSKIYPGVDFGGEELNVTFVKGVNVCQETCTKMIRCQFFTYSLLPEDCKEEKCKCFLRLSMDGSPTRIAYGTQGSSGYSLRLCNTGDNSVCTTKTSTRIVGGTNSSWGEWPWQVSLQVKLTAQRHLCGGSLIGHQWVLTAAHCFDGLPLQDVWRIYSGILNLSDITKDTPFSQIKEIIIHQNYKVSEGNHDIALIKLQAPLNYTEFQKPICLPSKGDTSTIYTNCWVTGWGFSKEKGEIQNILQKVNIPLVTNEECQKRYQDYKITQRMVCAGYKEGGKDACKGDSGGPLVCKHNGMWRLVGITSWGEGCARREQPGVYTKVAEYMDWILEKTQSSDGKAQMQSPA
Protocol: as §1

Plasmin [5] = target: T1, Plasmin; assay: In vitro inhibition of plasmin by WX-508 (Example 15); type: biochemical
Protocol: as §2

Caco-2 cell monolayers = assay: Caco-assay: transport across Caco-2 cell monolayers; type: in vitro ADME, human; conditions: for % amount in the basolateral compartment: 10 μg/ml apical, four hours; for Caco-2 assay % basolateral: first series
Protocol: Transport of the compounds WX-508, WXC-316, WXC-318, WXC-324, WXC-340, WX-532, WX-538, WX-550 and WX-582 across Caco-2 cell monolayers was investigated. In this experiment the bioavailability of the said compounds after oral administration was assessed.
Caco-2-cells (American Type Culture Collection, Rockville, Md., USA) were cultured in Dulbecco's modified Eagle medium (DMEM) (Life Technologies, Gibco BRL, UK) containing 10% vol/vol heat-denatured foetal calf serum (FCS), 1% vol/vol non-essential amino acids, 160 U/ml benzylpenicillin and 100 U/ml streptomycin (Sigma Chemical, St. Louis, Mo., USA). The cells are kept at 37° C. in an atmosphere comprising 95% air and 5% CO2 at 90% relative air humidity. The cells are cultured in […] culture flasks, the medium being replaced every second day and the cells are trypsinized once per week.
For the transport investigations the Caco-2 cells are cultured on porous polycarbonate filter membranes having a pore size of 0.4 μm and a surface of 4.7 cm^2 in clusters of 6 wells (Costar Transwell, Badhoevedorp, Netherlands). The cells are inoculated on each filter at an initial density of 10^4 cells/cm^2. These cells are kept at 37° C. in one of the atmospheres described above. The medium is replaced every second day for a period of three weeks.
On the day of the transport experiment the culture medium was replaced by the same volume of Hank's balanced saline solution (HBSS) buffered with 30 mM HEPES at pH 7.2 (transport medium) and the cells are allowed to equilibrate for 1 hour. Afterwards the apical medium is replaced by 1.5 ml of a solution containing one of the compounds in HBSS/HEPES (10 μg/ml). Cell monolayers are incubated for four hours. Samples of the apical and basolateral compartments are removed at the end of the experiments and used to quantitatively determine the transport of the respective compounds.
The transepithelial electric resistance (TEER) is measured before and after equilibration using a Milicell ERS meter which was connected to a pair of electrodes in order to ensure the integrity of the monolayers formed on the filters. TEER is also measured at the end of the experiments to ensure that the cell monolayer remains coherent.
Samples are taken from the apical and the basolateral side and analysed in a beta counter after adding a scintillation cocktail. All experiments were carried out three times.

urokinase (uPA) = target: T4, urokinase (uPA) (Homo sapiens, UniProt P00749); assay: In vitro inhibition of urokinase (Ki according to Dixon, chromogenic substrate); type: biochemical
T4 construct: purchased Calbiochem-Novabiochem GmbH, Bad Soden, Germany
Outline: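 Chromogenic read-out in 0.05 mol/l Tris, 0.154 mol/l NaCl, pH 8.0, with inhibitor, substrate (Pefachrome uPA, Pefachrome PL or Pefabloc TH) and protease, incubated 10 min at 30 °C. Absorbance at 405 nm was read after ca. 30 min (30 cycles). Ki was derived by Dixon linear regression.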

[6] = tested on: rat breast adenocarcinoma cells; conditions: after i.v. inoculation of rat breast adenocarcinoma cells; cited from earlier work
uPA = uPA (Homo sapiens, UniProt P00749); conditions: background, literature; read-out: Ki, uPA (inhibition constant); cited from earlier work
[7] = tested on: DU145 tumors (a prostate adenocarcinoma cell line); conditions: SCID mice, orally 125 to 250 mg/kg/day; cited from earlier work
[8] = 30 mg/kg, 30 mg/kg oral, read-out: c in the serum 1st analysis
[9] = 30 mg/kg, 30 mg/kg oral, read-out: c in the serum 2nd analysis
[10] = 300 mg/kg, 300 mg/kg oral, read-out: c in the serum 1st analysis
[11] = 300 mg/kg, 300 mg/kg oral, read-out: c in the serum 2nd analysis

Structure (SMILES): N=C(N)c1cc2c(I)cccc2s1 [B428, 4-iodo-benzo[b]-thiophene-2-carboxamidine]
- primary tumor growth (mouse mammary carcinoma; administered together with the anti-oestrogen Tamoxifen): further decrease of primary tumor growth
- tumor growth and formation of metastases (mouse mammary carcinoma; syngenic model for mouse mammary carcinoma): decrease in tumor growth and formation of metastases
- tumor growth and formation of metastases (rat prostate carcinoma): decrease in tumor growth and formation of metastases

- Ki (Plasmin [1]): > 200 µM
- Ki (Plasmin [1]; summary table): > 200 µM
- Ki (urokinase): 0.04 µM
- Ki (Thrombin [2]): > 350 µM
- Ki (Thrombin [2]; summary table): > 350 µM
- Ki (Thrombin [3]): > 1000 µM
- concentration at 20 min [4, 8]: 300 ng/mL
- concentration at 20 min [4, 9]: 300 ng/mL
- concentration at 40 min [4, 8]: 5700 ng/mL
- concentration at 40 min [4, 9]: 4500 ng/mL
- concentration at 60 min [4, 8]: 80 ng/mL
- concentration at 60 min [4, 9]: 90 ng/mL
- concentration at 20 min [4, 10]: 3500 ng/mL
- concentration at 40 min [4, 10]: 7500 ng/mL
- concentration at 40 min [4, 11]: 8300 ng/mL
- concentration at 60 min [4, 10]: 5400 ng/mL
- concentration at 60 min [4, 11]: 5800 ng/mL
- c in the serum 1st analysis ([4]; time of sample collection 0): 41.1 µg/mL
- c in the serum 2nd analysis ([4]; time of sample collection 0): 55.5 µg/mL
- c in the serum 1st analysis ([4]; time of sample collection 10): 4.3 µg/mL
- c in the serum 2nd analysis ([4]; time of sample collection 10): 4.7 µg/mL
- c in the serum 1st analysis ([4]; time of sample collection 30): 0.7 µg/mL
- c in the serum 2nd analysis ([4]; time of sample collection 30): 0.2 µg/mL
- Ki (PK): 180 µM
- Ki (Plasmin [5]): > 1000 µM
- % amount in the basolateral compartment (Caco-2 cell monolayers; first value column): 0.2%
- % amount in the basolateral compartment (Caco-2 cell monolayers; second value column): 0.1%
- % amount in the basolateral compartment (Caco-2 cell monolayers; third value column): 0.7%
- Caco-2 assay % basolateral (Caco-2 cell monolayers; first value): 0.2%
- Caco-2 assay % basolateral (Caco-2 cell monolayers; second value): 0.1%
- Caco-2 assay % basolateral (Caco-2 cell monolayers; third value): 0.7%
- Ki (urokinase (uPA); list of test substances of Example 17, read-out: Ki human uPA): 0.034 µM
- Ki (urokinase (uPA); read-out: Ki uPA): 0.034 µM
- Ki (urokinase (uPA); summary table, read-out: Ki uPA): 0.034 µM
Structure (SMILES): N=C(N)Nc1ccc(CNC(=O)CNC(=O)[C@@H](CO)NS(=O)(=O)Cc2ccccc2)cc1 [WX-508, benzylsulfonyl-(D)-Ser-Gly-(4-guanidinobenzyl)amide hydrochloride]

Structure (SMILES): N=C(N)NC(=O)c1nc(Cl)c(N)nc1N [amiloride]
- formation of lung metastases [6]: prevents the formation of lung metastases

Structure (SMILES): N=C(N)c1ccc(N)cc1 [p-Aminobenzamidine]
- Ki (uPA): 82 µM
- growth rate of DU145 tumors [7]: considerable decrease in the growth rate
- side-effects [7]: negligibly small
